Legend:
[1] = system: 786-O renal cell carcinoma (RCC) xenografts; test: Growth inhibition of established 786-O renal cell carcinoma xenografts; type: in vivo, athymic nude mice; settings: high sunitinib dose 50 mg/kg daily, alone or with B20-4.1
Procedure: (§1) Volume was calculated using the formula:
(§2) Tumor Volume(mm^3)=(W2×l)/2
(§3) Tumors were measured twice weekly using calipers. […] Treatment outcome was based on tumor growth inhibition (TGI).
(§4) Animals were monitored for regression responses.

[2] = system: Caki-2 human renal cell carcinoma xenografts; test: Growth inhibition of established Caki-2 renal cell carcinoma xenografts; type: in vivo, SCID mice
Procedure: as §1, §2, §3, §4

[3] = system: LS174T human colon carcinoma xenografts; test: Growth inhibition of established LS174T human colon carcinoma xenografts; type: in vivo, athymic nude mice; settings: Day 18 of separate 25-day study; high sunitinib dose 50 mg/kg daily, alone or with B20-4.1
Procedure: as §1, §2, §3, §4

[4] = system: H1299 human non-small cell lung carcinoma (NSCLC) xenografts; test: Growth inhibition of established H1299 human NSCLC xenografts; type: in vivo, athymic nude mice; settings: Day 19, longer term study, alone or with B20-4.1
Procedure: as §1, §2, §3, §4

## CCN(CC)CCNC(=O)c1c(C)[nH]c(/C=C2\C(=O)Nc3ccc(F)cc32)c1C [sunitinib, N-[2-(diethylamino)ethyl]-5-[(Z)-(5-fluoro-1,2-dihydro-2-oxo-3H-indol-3-ylidine)methyl]-2,4-dimethyl-1H-pyrrole-3-carboxamde]
[1]
  TGI (tumor growth inhibition): 80%
[2]; Day 29, high dose (50 mg/kg) sunitinib, alone or with B20-4.1
  TGI (tumor growth inhibition): 62%
[2]; low dose (25 mg/kg) sunitinib monotherapy
  Day 29 mean tumor volumes (MTVs): 352 mm^3
[3]
  TGI (tumor growth inhibition): 43%
[4]; sunitinib 25 mg/kg daily
  TGI (tumor growth inhibition): 32%
[4]; sunitinib 50 mg/kg daily
  TGI (tumor growth inhibition): 62%

Source: US20080199464A1, “Combination Therapy with Angiogenesis Inhibitors” (Genentech, Inc., priority 2007, published 2008)
